Series [1] in a line: Concentration of test drug in blood by oral administration in rats (LC/MS/MS). It is filed as in vivo. To be noted: Wistar rats, oral 1 mg/kg; for concentration at 5 min / concentration at 10 min / concentration at 15 min / concentration at 30 min / concentration at 1 h / concentration at 2 h: male, rat, plasma, mean of 2 samples; for concentration at 5 min: 5 min. after administration; for concentration at 10 min: 10 min. after administration; for concentration at 15 min: 15 min. after administration; for concentration at 30 min: 30 min. after administration; for concentration at 1 h: 1 hour after administration; for concentration at 2 h: 2 hours after administration. On the procedure:
Experiment 2 [Concentration of Test Drug in Blood by Oral Administration in Rats]
Wistar rats, male (8 weeks old) were used after fasting from the day before the test.
At 5, 10, 15, 30 minutes, 1 and 2 hours after the administration, each 0.2 ml of blood was collected from the jugular vein and, after centrifugation, the resulting plasma was used as sample.
That is, 50 μl of the plasma was added to 200 μl of acetonitrile, stirred and, after centrifugation, the supernatant was injected to a liquid chromatography wherein CAPCEL PAK C18, UG120 5 μm (150 mm long, 2 mm diameter) was used as a column, a mixture of 10 mM aqueous ammonium acetate solution and 90% aqueous acetonitrile solution (1:9) was used as an eluent, Sciex API3000 LC/MS/MS System (Perkin Elmer Sciex) was used as a MS/MS condition, ESI was used as an ionization method, and cation, and SRM (precursor ion and daughter ion) was used for monitoring.

For series [2], the target named is dipeptidyl peptidase IV (DPP IV) (Homo sapiens, UniProt P27487). Kind of series: Dipeptidyl peptidase IV activity inhibition test (human plasma, Gly-Pro-4-methylcoumaryl-7-amide). It is filed as biochemical. Conditions: room temperature, 2 hours, pH 7.8. On the procedure:
Experiment 1 [Dipeptidyl Peptidase IV Activity Inhibition Test]
Plasma including dipeptidyl peptidase IV was prepared by centrifugation of blood collected from healthy human volunteers. […] The fluorescence intensity at which the reaction time of the vehicle addition was 0 minute was regarded as a blank value, and the specific fluorescence intensity was calculated by subtracting the blank value from the determined value. The inhibition rate (%) of the dipeptidyl peptidase IV activity was calculated from the resulting specific fluorescence intensity according to the following formula. The dimethyl sulfoxide solution containing the test compound at high concentration of 1000-fold was prepared and diluted with the above-mentioned buffer solution for use.
Inhibition rate (%)=A/B×100
(A=fluorescence intensity of vehicle addition fluorescence intensity of the test compound addition)
(B=fluorescence intensity of the vehicle addition)

A further series concerns Zucker fatty rats. Kind of series: Oral glucose tolerance test (OGTT) in Zucker fatty rats. Type of series: in vivo. On the procedure:
Experiment 3 [Effect of Dipeptidyl Peptidase IV Inhibitors on Oral Glucose Tolerance Test (OGTT) in Zucker Fatty Rats]
An OGTT in Zucker fatty rats was carried out referring to the method described in Diabetologia, 42, 1324-1331 (1999). In the test, male Zucker fatty rats, 10 weeks old (Charles River Japan, Inc.) were used after fasting for 16 hours. […] Before the begining of the test, blood was collected from the intraorbital vein using a heparin-treated tube for blood collection (manufactured by Drummond Scientific Co.). The test compounds were each dissolved in water for injection under Japanese Pharmacopoeia (manufactured by Hikari Pharmaceutical Co.) and orally administered in an amount of 2 ml/kg of the body weight. The same amount of water for injection under Japanese Pharmacopoeia only was administered to control group. […]
Plasma glucose levels of the frozen samples (mg/dl) were determined using Glucose CII test Wako (manufactured by Wako Fine Chemical Industry Co.), and the area under the curve (min·mg/dl) was calculated from the plasma glucose levels which were determined from the blood collected for 60 minutes after the glucose administration. […]

Molecules are shown by their SMILES. Counter-ions that a name gives are not always drawn.

Chain of dipeptidyl peptidase IV (DPP IV) (P27487 39-766 limits assumed): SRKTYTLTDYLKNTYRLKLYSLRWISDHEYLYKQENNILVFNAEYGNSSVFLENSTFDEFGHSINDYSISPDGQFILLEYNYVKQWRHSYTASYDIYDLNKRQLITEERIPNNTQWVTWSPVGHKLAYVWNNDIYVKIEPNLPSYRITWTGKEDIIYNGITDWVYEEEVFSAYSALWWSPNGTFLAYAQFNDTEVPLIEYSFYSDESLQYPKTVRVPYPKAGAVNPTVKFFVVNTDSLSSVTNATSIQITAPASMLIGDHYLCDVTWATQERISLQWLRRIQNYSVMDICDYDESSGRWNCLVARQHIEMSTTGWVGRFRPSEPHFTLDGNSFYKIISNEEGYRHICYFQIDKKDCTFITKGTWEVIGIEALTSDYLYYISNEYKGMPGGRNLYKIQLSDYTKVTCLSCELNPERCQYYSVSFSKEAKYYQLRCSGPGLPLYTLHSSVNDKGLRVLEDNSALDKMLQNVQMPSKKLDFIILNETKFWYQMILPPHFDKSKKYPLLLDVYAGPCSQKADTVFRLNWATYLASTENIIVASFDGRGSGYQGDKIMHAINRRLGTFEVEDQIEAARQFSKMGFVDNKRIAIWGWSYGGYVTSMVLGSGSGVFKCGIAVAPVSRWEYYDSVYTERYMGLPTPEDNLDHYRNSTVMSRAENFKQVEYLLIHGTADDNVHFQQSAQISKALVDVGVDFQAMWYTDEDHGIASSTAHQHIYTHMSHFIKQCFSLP

In series [1], `CC[C@H](C)[C@H](N)C(=O)N1CCC[C@H]1C#N` [Compound A, 1-[(2S,3S)-2-amino-3-methylpentanoyl]-2-(S)-cyanopyrrolidine trifluoroacetate, reference compound] gave a concentration at 5 min of 122 ng/mL, a concentration at 10 min of 146 ng/mL, a concentration at 15 min of 113 ng/mL and a concentration at 30 min of 28 ng/mL. In series [1], the concentration at 1 h was 6 ng/mL and the concentration at 2 h was 2 ng/mL.
In general, IC50 refers to the concentration that inhibits the measured activity by half. Higher therefore signals lower potency. For `CC[C@H](C)[C@H](N)C(=O)N1C[C@@H](F)C[C@H]1C#N.Cl` [Example 1, (2S,4S)-1-[(2S,3S)-2-amino-3-methylpentanoyl]-2-cyano-4-fluoropyrrolidine Hydrochloride], half-maximal inhibition in series [2] (IC50) required 0.6 nM. Besides, in series [1], the “concentration in plasma compared with Compound A (in words)” value is reported as “higher concentration in plasma than Compound A”, the concentration at 5 min came to 157 ng/mL, the concentration at 10 min stood at 372 ng/mL and the concentration at 15 min turned out to be 348 ng/mL. In series [1], this compound returned a concentration at 30 min of 195 ng/mL, a concentration at 1 h of 24 ng/mL and a concentration at 2 h of 5 ng/mL. Besides, the “elevation of the plasma glucose level (in words)” value in the series with Zucker fatty rats (OGTT, p<0.05) was “inhibited significantly the elevation of the plasma glucose level”. In addition, the “area under the curve of plasma glucose levels, mean ± S.E.” value in the series on Zucker fatty rats (oral, glucose 1 g/kg 30 minutes after compound, 60 minutes after glucose administration) came out at 13248 ± 619 mg·min/dL.
The compound `CC(C)[C@H](N)C(=O)N1C[C@@H](F)C[C@H]1C#N` [Example 15, (2S,4S)-1-[(2S)-2-amino-3-methylbutanoyl]-2-cyano-4-fluoropyrrolidine Hydrochloride] registered an IC50 in series [2] of 0.7 nM.
Compound `CC(C)(C)[C@H](N)C(=O)N1C[C@@H](F)C[C@H]1C#N` [Example 17, (2S,4S)-1-[(2S)-2-amino-3,3-dimethylbutanoyl]-2-cyano-4-fluoropyrrolidine Hydrochloride] registered an IC50 in series [2] of 0.6 nM.

The values are drawn from patent publication US20040072892A1, “Cyanopyrrolidine derivatives” (priority 2000, published 2004).
